TGI data for 13 molecules are collected here from PubChem BioAssay (NCI).

What all share (test): NCI anticancer screen, dose series, 48 h
Assay [1] has as its system ACHN renal.
Assay [2] relates to HL-60(TB) leukemia.
Assay [3] concerns LOX IMVI melanoma.
Assay [4] has as its system OVCAR-3 ovarian.
Assay [5] concerns OVCAR-4 ovarian.
Assay [6] has as its system OVCAR-8 ovarian.
For assay [7], the system named is SF-295 CNS.
Assay [8] has as its system SK-MEL-5 melanoma.
Assay [9] relates to SW-620 colon.
The subject of assay [10] is UACC-257 melanoma.

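Grown in 96-well plates, cells were treated for 48 hours with each compound at five concentrations. Insufficient inhibition: endpoint recorded as highest concentration tested. Definition used: TGI = concentration required for complete inhibition of growth.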

Turning to `C=CCn1c(=O)c(C(=O)Nc2nc(C34CC5CC(CC(C5)C3)C4)cs2)c(O)c2ccccc21`, the TGI in assay [1] was greater than 100 µM; in assay [2] it was 65.6 µM; in [3], greater than 100 µM; in assay [4] it was greater than 100 µM; in assay [5], greater than 100 µM; in assay [6], greater than 100 µM. Also, the TGI in assay [7] is 40.7 µM; in [8], greater than 100 µM; in [9], greater than 100 µM; in assay [10], 22.4 µM.
For `CCNC(=S)NNC(=O)C12CC3CC(CC(C3)C1)C2`, the TGI in assay [1], in assay [2], in assay [3], in assay [4], in assay [5] and in assay [6] was greater than 100 µM in each case. Also, the TGI in assay [7], in [8], in [9] and in assay [10] was greater than 100 µM in each case.
For `O=C1OC(C2Cc3ccc4ccccc4c3C2=O)c2ccccc21` (stereo not given), the TGI in assay [1] is greater than 100 µM; in assay [2], greater than 100 µM; in assay [3], greater than 100 µM; in [4], 98.1 µM; in assay [5], 65.3 µM; in assay [6], greater than 100 µM. Also, the TGI was greater than 100 µM in [7], 98.2 µM in assay [8], greater than 100 µM in [9] and greater than 100 µM in assay [10].
Turning to `CC(c1ccccc1)N1CCN(C(C)c2ccccc2)CC1` (stereo not given), the TGI in assay [1], in assay [2], in [3], in [4], in [5] and in [6] was greater than 100 µM throughout. The TGI is greater than 100 µM in [7], 35.7 µM in assay [8], greater than 100 µM in assay [9] and greater than 100 µM in assay [10].
`O=C(O)c1ccccc1CC(Cc1ccc2c(c1)CCC2)C(=O)O` (stereo not given): the TGI in [1], in [2], in assay [3], in assay [4], in assay [5] and in assay [6] was greater than 100 µM each time. The TGI in assay [7], in assay [8], in assay [9] and in assay [10] was greater than 100 µM in each case.
In the case of `O=C(/C=C/c1ccccc1)Oc1ccc(C(=O)/C=C/c2ccccc2)cc1`, the TGI in assay [1] came out at 18.3 µM; in assay [2], 8.2 µM; in assay [3], 17.7 µM; in assay [4], 16 µM; in [5], 55.5 µM; in [6], 16 µM. Also, the TGI turned out to be 24.4 µM in [7], 37 µM in [8], 18.6 µM in assay [9] and 20.3 µM in assay [10].
`Cc1c2n(c(=O)[nH]c1=O)C1OC(CO)C(N=[N+]=[N-])C1O2` (stereo not given): the TGI in [1], in assay [2], in assay [3], in [4], in assay [5] and in assay [6] was greater than 100 µM in each case. In addition, the TGI in [7], in [8], in assay [9] and in assay [10] was greater than 100 µM each time.
Regarding `CC(=NNC(=S)Nc1ccccc1)c1cccc(C(C)=NNC(=S)Nc2ccccc2)n1`, the TGI in assay [1] is 6.86 µM; in [2], greater than 20.6 µM; in assay [3] it was greater than 100 µM; in [4], greater than 28.5 µM; in [5] it was greater than 100 µM; in assay [6], greater than 50.2 µM. Besides, the TGI in assay [7] was greater than 42 µM; in assay [8], greater than 40.1 µM; in assay [9], greater than 100 µM; in assay [10], greater than 100 µM.
`CC1=CCC([C@@](C)(O)CCCC(C)(C)N=C=S)CC1` (stereo not given in full): the TGI in assay [1] was found to be 30.5 µM; in [2], 43.8 µM; in [3], 29.6 µM; in [4], 32.6 µM; in assay [5] it was 30.9 µM; in assay [6], 32.7 µM. The TGI in assay [7] was 36.3 µM; in [8], 29.2 µM; in assay [9] it was 32.6 µM; in [10], 35 µM.
Consider `COc1ccc(N2C(=O)CC(=O)N(NC(=O)C(C)Oc3ccccc3C)C2=S)cc1` (stereo not given), for which the TGI in [1], in assay [2], in assay [3], in assay [4], in assay [5] and in assay [6] was greater than 100 µM throughout. In addition, the TGI in [7], in [8], in assay [9] and in assay [10] was greater than 100 µM in each case.
With `C=C1C(=O)CC2C1CC(=O)/C(C)=C/CCC(C)(O)C2O` (stereo not given), the TGI in [1] was determined as 4.92 µM; in assay [2] it was 10.1 µM; in assay [3], 11.9 µM; in assay [4], 17 µM; in assay [5], 29.1 µM; in assay [6] it was 11.6 µM. The TGI in [7] is 47.8 µM; in assay [8], 17.6 µM; in assay [9] it was greater than 33.7 µM; in assay [10], 12.6 µM.
For the molecule `C=CCc1cc(-c2nc(=S)[nH][nH]2)ccc1N=NNc1ccc(C(=O)O)cc1`, the TGI in [1], in assay [2], in [3], in assay [4], in [5] and in assay [6] was greater than 100 µM each time. Moreover, the TGI in assay [7] is greater than 100 µM; in assay [8], 60.1 µM; in assay [9] it was greater than 100 µM; in [10], greater than 100 µM.
`Cc1c2cc[n+](C)c(C)c2cc2c1[nH]c1ccccc12`: the TGI is greater than 100 µM in [1]; 82.1 µM in assay [2]; greater than 92.2 µM in assay [3]; 57.7 µM in assay [4]; 43.3 µM in [5]; greater than 93.4 µM in [6]. The TGI in [7] is 32.3 µM; in [8], 11 µM; in [9], greater than 95.1 µM; in [10], 65.8 µM.
